Assay results as given in US20070197509A1, “Compositions and methods for modulating gated ion channels” (PainCeptor Pharma Corporation, priority 2005, published 2007).
Entries after “also recorded” stand apart in the source; their conditions may differ.

Target: T1, hASIC3 (Homo sapiens, UniProt Q9UHC3)
T1 sequence (Q9UHC3 1-531): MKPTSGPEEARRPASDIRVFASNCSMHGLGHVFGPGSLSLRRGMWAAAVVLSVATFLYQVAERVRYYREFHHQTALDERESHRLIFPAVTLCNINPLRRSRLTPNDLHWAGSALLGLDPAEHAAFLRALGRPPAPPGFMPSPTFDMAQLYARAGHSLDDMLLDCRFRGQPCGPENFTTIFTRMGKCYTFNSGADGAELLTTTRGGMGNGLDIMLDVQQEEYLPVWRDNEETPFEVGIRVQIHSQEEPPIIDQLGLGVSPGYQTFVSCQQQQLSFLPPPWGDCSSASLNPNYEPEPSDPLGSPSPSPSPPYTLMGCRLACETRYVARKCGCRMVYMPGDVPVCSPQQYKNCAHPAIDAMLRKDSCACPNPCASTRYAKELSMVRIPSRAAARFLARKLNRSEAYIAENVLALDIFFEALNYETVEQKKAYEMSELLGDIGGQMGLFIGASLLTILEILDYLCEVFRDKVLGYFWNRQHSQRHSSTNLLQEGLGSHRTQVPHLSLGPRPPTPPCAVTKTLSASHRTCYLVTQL
Assay: Whole-cell patch clamp of acid-evoked currents in CHO cells transfected with hASIC3
Assay type: cell-based
Parameters: expressed in transfected cells
Protocol: All experiments are performed at room temperature (20-25° C.) in voltage clamp using conventional whole cell patch clamp methods (Neher, E., et al. (1978) Pfluegers Arch 375:219-228).
Coverslips with the cells are transferred to a 15 μl experimental chamber mounted on the stage of an inverted microscope (IMT-2, Olympus) supplied with Nomarski optics. Cells are continuously superfused with extracellular saline at a rate of 2.5 ml/min. After giga-seal formation, the whole cell configuration is attained by suction. The cells are held at a holding voltage of −60 mV and at the start of each experiment the current is continuously measured for 45 s to ensure a stable baseline. […] Current amplitudes are measured at the peak of the responses, and effect of the compounds is calculated as the amplitude at compound equilibrium divided by the amplitude of the current evoked by the pulse just before the compound was included. […]
FIG. 3 compares the selectivity of Compound R for human ASIC1a versus human ASIC3, both stably transfected in CHO cells. […] FIG. 3C compares the dose-response relationship of Compound R on hASIC1a and hASIC3 [determined by measuring the area under the curve of the response (total charge transfer) and normalized to the control response].

In the case of `Cc1cc(OC2CCN(Cc3ccccc3)CC2)c2ccccc2n1` [Compound R, 4-(1-benzyl-piperidin-4-yloxy)-2-methyl-quinoline], the “effect on acid evoked hASIC3 current amplitude (FIG. 3B)” value (30 μM, CHO cells) was “failed to reduce the amplitude of the current; also recorded: failed to inhibit” and the “Biological Data (IC50 uM) h3 (PC)” value (patch clamp (PC), Table A) was “inactive”.
